Marks after values point to notes of the source that are not given here.
How the values were obtained:
[1] = PBMC PK of CDV-PP following IV and oral suspension BCV; type: in vivo, human; settings: BCV 50 mg, 2- or 4-h IV infusion
Method: Two single dose BCV studies in healthy subjects contributed data for this analysis. The first study was a 2-period crossover bioequivalence study that enrolled 24 subjects who received two formulations of BCV oral suspension 100 mg fasted, one in each period. Data from 12 subjects who had PBMCs collected in Period 1 were included in this analysis; these subjects were 100% female, 31-59 years, and 58-88 kg. The second study, outlined above, enrolled 40 subjects who received IV BCV or placebo. Data from 18 subjects who received BCV 50 mg as either a 2-h or 4-h IV infusion were included in this analysis; these subjects were 100% male, 18-46 years, 64-106 kg. Serial PBMC samples were collected over 14 days and assayed by HPLC-MS-MS. PBMC CDV-PP PK parameters were determined by non-compartmental analysis.

[2] = 28-day intravenous infusion toxicity study with 14-day recovery; type: in vivo, Sprague-Dawley CD rats; settings: for Testicular germ cell depletion, severity: terminal sacrifice
Method: Sprague-Dawley CD® rats (15/sex/group) were administered 0 (2× Sodium Phosphate Buffer Solution), 1, 4 or 15 mg/kg/dose brincidofovir twice per week via 2-hour intravenous infusion on a total of 9 occasions over 29 days. The dose rate was 10 mL/kg/hr for all dose groups. At the end of the treatment phase, up to 10 animals/sex/group were euthanized and necropsied. The remaining animals (up to 5 animals/sex/group) were held for a 14-day recovery phase in order to determine progression or reversibility of any brincidofovir-related effects. Satellite animals (up to 3/sex/group) were similarly dosed and serial blood samples were collected from each animal on Days 1 and 29 for toxicokinetic analysis of brincidofovir and the brincidofovir metabolite (Cidofovir, CDV). Parameters evaluated during the study were: viability, clinical observations, ophthalmology, body weights, food consumption, clinical pathology (termination of dosing and end of recovery), organ weights, macroscopic observations and microscopic pathology.
The test/control item was administered via 2 hours intravenous infusion twice weekly for a total of 9 individual doses over 29 days. Test/control item administration continued through the day prior to terminal necropsy. Recovery animals were held for a 14 day observation period after the last dose.
Animals in extremely poor health or in a possible moribund condition were identified for further monitoring and possible euthanasia.
Observations were made immediately and 2 hours after the completion of dosing for any signs of poor health or toxic or pharmacologic effects (e.g., abnormalities in general condition, appearance, activity, behavior, respiration, etc.).
Blood obtained via the orbital sinus (retrobulbar venous plexus) under light isoflurane anesthesia was used to analyze hematology, coagulation and clinical chemistry parameters for up to 10 toxicity animals/sex/group at the termination of dosing and up to 5 recovery animals/sex/group at the end of recovery. Animals were fasted overnight prior to each blood collection interval.
Necropsy was performed on up to 10 toxicity study animals/sex/group after animals had been treated for 29 days and on up to 5 toxicity study animals/sex/group after a 14 day treatment-free recovery period. Animals were fasted overnight prior to necropsy. Necropsy schedules were established to ensure that examination of animals of both sexes from each group were performed at similar times of the day throughout the necropsy periods.
Complete macroscopic examinations were performed on all animals. The macroscopic examination included examination of the external surface and all orifices; the external surfaces of the brain and spinal cord; the organs and tissues of the cranial, thoracic, abdominal and pelvic cavities and neck; and the remainder of the carcass for the presence of macroscopic morphologic abnormalities.
The tissues listed below were obtained from all animals and preserved. In addition, slides of the indicated tissues were prepared and examined microscopically. Any abnormalities not noted during macroscopic examinations which were seen during histology processing were recorded.
After fixation, the tissues and organs from all animals were routinely processed, embedded in paraffin, cut at a microtome setting of 4-7 microns, mounted on glass slides, stained with hematoxylin and eosin and examined by light microscopy. The bones were decalcified in Decalcifier II™.

[3] = females (2F), 1 mg/kg/dose, 29 day period, 11 tissues examined
[4] = females (3F), 4 mg/kg/dose, 29 day period, 10 tissues examined
[5] = females (4F), 15 mg/kg/dose, 29 day period, 10 tissues examined
[6] = females (4F), 15 mg/kg/dose, following 14-day recovery period, 5 tissues examined
[7] = males (2M), 1 mg/kg/dose, 29 day period, 10 tissues examined
[8] = males (2M), 1 mg/kg/dose, following 14-day recovery period, 5 tissues examined
[9] = males (3M), 4 mg/kg/dose twice weekly, 29 day period, statistically significant
[10] = males (3M), 4 mg/kg/dose, 29 day period, 10 tissues examined
[11] = males (3M), 4 mg/kg/dose, following 14-day recovery period, 5 tissues examined
[12] = males (3M), 4 mg/kg/dose, following 14-day recovery period, statistically significant
[13] = males (4M), 15 mg/kg/dose twice weekly, 29 day period, statistically significant
[14] = males (4M), 15 mg/kg/dose, 29 day period, 10 tissues examined
[15] = males (4M), 15 mg/kg/dose, following 14-day recovery period, 5 tissues examined
[16] = males (4M), 15 mg/kg/dose, following 14-day recovery period, statistically significant

CCCCCCCCCCCCCCCCOCCCOP(=O)(O)CO[C@H](CO)Cn1ccc(N)nc1=O [Brincidofovir]
Intracellular CDV-PP exposure vs BCV 100 mg oral suspension [1]: comparable
mortality ([2]; 1, 4 or 15 mg/kg/dose): no brincidofovir-related mortalities
Clinical observations, dosing phase ([2]; 4 and 15 mg/kg/dose, both sexes): intermittent clinical signs
No-observed-adverse-effect level (NOAEL) ([2]; females): 4 mg/kg/dose
Decrease in food consumption vs concurrent controls (to) ([2]; females 15 mg/kg/dose, Week 3): −9.8%
Intestinal tract findings: Total Animals Represented [2, 3]: 0
Skin findings: Total Animals Represented [2, 3]: 0
Bone marrow findings: Total Animals Represented ([2]; females (2F), 1 mg/kg/dose, following 14-day recovery period, 4 tissues examined): 0
Intestinal tract findings: Total Animals Represented [2, 4]: 9
Skin findings: Total Animals Represented [2, 4]: 0
Small intestine: Necrosis, Epithelium, Crypts, Minimal (incidence) [2, 4]: 9
Bone marrow findings: Total Animals Represented ([2]; females (3F), 4 mg/kg/dose, following 14-day recovery period, 5 tissues examined): 0
Intestinal tract findings: Total Animals Represented [2, 5]: 9
Large intestine: Necrosis, Epithelium, glands, Minimal (incidence) [2, 5]: 4
Skin findings: Total Animals Represented [2, 5]: 10
Skin: Atrophy, Sebaceous Glands, Marked (incidence) [2, 5]: 2
Skin: Atrophy, Sebaceous Glands, Moderate (incidence) [2, 5]: 3
Skin: Atrophy, Sebaceous Glands, Slight (incidence) [2, 5]: 5
Small intestine: Hyperplasia, Epithelium, Crypts, Minimal (incidence) [2, 5]: 5
Small intestine: Necrosis, Epithelium, Crypts, Minimal (incidence) [2, 5]: 3
Small intestine: Necrosis, Epithelium, Crypts, Moderate (incidence) [2, 5]: 1
Small intestine: Necrosis, Epithelium, Crypts, Slight (incidence) [2, 5]: 5
Bone marrow findings: Total Animals Represented [2, 6]: 2
Bone marrow: Cellularity, Decreased, Minimal (incidence) [2, 6]: 2
Incidence of bone marrow decreased cellularity after recovery ([2]; females, 15 mg/kg/dose): 2/5
Intestinal tract findings: Total Animals Represented [2, 7]: 0
Male reproductive tract findings: Total Animals Represented [2, 7]: 0
Skin findings: Total Animals Represented [2, 7]: 0
Bone marrow findings: Total Animals Represented [2, 8]: 0
Male reproductive tract findings: Total Animals Represented [2, 8]: 0
Testes weight vs. body weight, % difference relative to controls ([2]; males (3M), 4 mg/kg/dose twice weekly, 29 day period): −3%
Testes absolute weight, % difference relative to controls [2, 9]: −9^a %
Testes weight vs. brain weight, % difference relative to controls [2, 9]: −9^a %
Intestinal tract findings: Total Animals Represented [2, 10]: 9
Male reproductive tract findings: Total Animals Represented [2, 10]: 10
Seminal Vesicles: Apoptosis, Epithelial, Minimal (incidence) [2, 10]: 4
Skin findings: Total Animals Represented [2, 10]: 0
Small intestine: Hyperplasia, Epithelium, Crypts, Minimal (incidence) [2, 10]: 5
Small intestine: Necrosis, Epithelium, Crypts, Minimal (incidence) [2, 10]: 8
Small intestine: Necrosis, Epithelium, Crypts, Slight (incidence) [2, 10]: 1
Testes: Depletion, Germ Cell, Minimal (incidence) [2, 10]: 6
Testes: Depletion, Germ Cell, Slight (incidence) [2, 10]: 3
Bone marrow findings: Total Animals Represented [2, 11]: 0
Male reproductive tract findings: Total Animals Represented [2, 11]: 5
Testes: Depletion, Germ Cell, Minimal (incidence) [2, 11]: 1
Testes: Depletion, Germ Cell, Slight (incidence) [2, 11]: 4
Testes absolute weight, % difference relative to controls [2, 12]: −21^a %
Testes weight vs. body weight, % difference relative to controls [2, 12]: −26^a %
Testes weight vs. brain weight, % difference relative to controls [2, 12]: −18^a %
Epididymides weight vs. body weight, % difference relative to controls ([2]; males (4M), 15 mg/kg/dose twice weekly, 29 day period): −6%
Epididymides absolute weight, % difference relative to controls [2, 13]: −14^a %
Epididymides weight vs. brain weight, % difference relative to controls [2, 13]: −13^a %
Testes absolute weight, % difference relative to controls [2, 13]: −24^a %
Testes weight vs. body weight, % difference relative to controls [2, 13]: −16^a %
Testes weight vs. brain weight, % difference relative to controls [2, 13]: −22^a %
Epididymides: Cell Debris, Luminal, Minimal (incidence) [2, 14]: 9
Intestinal tract findings: Total Animals Represented [2, 14]: 10
Large intestine: Necrosis, Epithelium, glands, Minimal (incidence) [2, 14]: 9
Male reproductive tract findings: Total Animals Represented [2, 14]: 10
Seminal Vesicles: Apoptosis, Epithelial, Minimal (incidence) [2, 14]: 8
Seminal Vesicles: Mitotic Figures, Epithelial, Minimal (incidence) [2, 14]: 4
Skin findings: Total Animals Represented [2, 14]: 10
Skin: Atrophy, Sebaceous Glands, Marked (incidence) [2, 14]: 4
Skin: Atrophy, Sebaceous Glands, Moderate (incidence) [2, 14]: 3
Skin: Atrophy, Sebaceous Glands, Slight (incidence) [2, 14]: 3
Small intestine: Hyperplasia, Epithelium, Crypts, Minimal (incidence) [2, 14]: 2
Small intestine: Necrosis, Epithelium, Crypts, Minimal (incidence) [2, 14]: 2
Small intestine: Necrosis, Epithelium, Crypts, Slight (incidence) [2, 14]: 8
Testes: Depletion, Germ Cell, Moderate (incidence) [2, 14]: 5
Testes: Depletion, Germ Cell, Slight (incidence) [2, 14]: 5
Bone marrow findings: Total Animals Represented [2, 15]: 3
Bone marrow: Cellularity, Decreased, Slight (incidence) [2, 15]: 3
Epididymides: Cell Debris, Luminal, Minimal (incidence) [2, 15]: 5
Epididymides: Sperm, Reduced, Luminal, Marked (incidence) [2, 15]: 4
Epididymides: Sperm, Reduced, Luminal, Severe (incidence) [2, 15]: 1
Male reproductive tract findings: Total Animals Represented [2, 15]: 5
Testes: Depletion, Germ Cell, Marked (incidence) [2, 15]: 4
Testes: Depletion, Germ Cell, Moderate (incidence) [2, 15]: 1
Testes absolute weight, % difference relative to controls [2, 16]: −42^a %
Testes weight vs. body weight, % difference relative to controls [2, 16]: −40^a %
Testes weight vs. brain weight, % difference relative to controls [2, 16]: −41^a %
Sebaceous gland atrophy, severity ([2]; males and females 15 mg/kg/dose): slight to marked
Single cell necrosis of crypt epithelium in small intestine, severity ([2]; males and females ≧4 mg/kg/dose): minimal to moderate
Decrease in food consumption vs concurrent controls (to) ([2]; males ≧1 mg/kg/dose, Week 4): −16%
Testicular germ cell depletion, severity ([2]; males, 4 mg/kg/dose): minimal to slight
Incidence of bone marrow decreased cellularity after recovery ([2]; males, 15 mg/kg/dose): 3/5
Testicular germ cell depletion, severity ([2]; males, 15 mg/kg/dose): slight to moderate
No-observed-adverse-effect level (NOAEL) ([2]; males, twice weekly 2-h IV infusion): 1 mg/kg/dose
Diarrhea ([2]; rat, in vivo): none of the animals in the present study experienced diarrhea
Effects on ophthalmology, body weights, hematology, coagulation, clinical chemistry, urinalysis ([2]; rat, in vivo): no brincidofovir-related effects
Transaminase elevations ([2]; rat, in vivo): No transaminase elevations were observed

— patent publication US20170368082A1, “FORMULATIONS OF BRINCIDOFOVIR” (priority 2016, published 2017)
